Tests used:
[1] = tested on: Npc1^nih mice; assay: Efficacy study in Npc1^nih mouse model (body weight, balance beam test, survival); assay type: in vivo; details: HPβCD 4 mg/g s.c. weekly starting at PN7
Method: Npc1^nih mouse model is a model for an early onset and faster progressing human diseases. This mouse model arises from the insertion of an active retrotransposon, a spontaneous mutation, which generated a frameshift resulting in a “knock out” of Npc1 gene: small amount of truncated Npc1 mRNA and no protein.
Npc1^nih mice received Polymer B (0.8 mg/g body weight) via injection (s.c.) at the scruff of the neck at PN4, PN7, and PN14. Another group of Npc1^nih mice received HPβCD (4 mg/g body weight; obtained from Sigma-Aldrich and used as received, CAS: 128446-35-5) via injected (s.c.) weekly starting at PN7. Control mice received PBS (sham). Mean volume of the injection was between 50 to 100 μL according to mice size. The body weight, motor behaviour, and survival rate of each group of mice were analyzed.
Example 5 was repeated for Npc1^nih mice receiving Polymer A (0.4 mg/g body weight) via injected (s.c.) weekly starting at PN7 and ending at PN70. The body weight and motor behaviours were analyzed. The results of these analyses were compared to the control mice results from Example 5. […]
The effects of various cyclodextrin polymers, doses, and injection schedules were tested on Npc1^nih mice. […] The body weight, motor behaviour, and survival rate of each group of mice were analyzed.

[2] = in vivo; design: species or system mice; details: mouse, sc, 500 mg/kg
Method: The effects of various cyclodextrin polymers were tested on WT mice. WT mice were injected with a single sub-cutaneous dose of 500 mg/kg of HPbCD, Polymer A, or Polymer B. PK measurements were taken every 2 hours via HPLC-UV measurements of mouse plasma. FIG. 28 presents the half-life results of this experiment. […] The recovery was 90% from plasma and tissues.

[3] = tested on: nmf164 mice; details: 4000 mg/kg; cited from earlier work

CC(O)COC[C@H]1O[C@@H]2O[C@H]3[C@H](O)[C@@H](O)[C@@H](O[C@H]4[C@H](O)[C@@H](O)[C@@H](O[C@H]5[C@H](O)[C@@H](O)[C@@H](O[C@H]6[C@H](O)[C@@H](O)[C@@H](O[C@H]7[C@H](O)[C@@H](O)[C@@H](O[C@H]8[C@H](O)[C@@H](O)[C@@H](O[C@H]1[C@H](O)[C@H]2O)O[C@@H]8COCC(C)O)O[C@@H]7COCC(C)O)O[C@@H]6COCC(C)O)O[C@@H]5COCC(C)O)O[C@@H]4COCC(C)O)O[C@@H]3COCC(C)O (stereo partly drawn) [HPβCD, Hydroxypropyl-β-cyclodextrin]
Body weight and motor behaviour assessment together (rescuing efficacy) [1]: rescuing efficacy
Survival ([1]; control about 10-11 weeks): 16-17 weeks
bioavailability [2]: 42%
Median survival [3]: 175 to 185 days

From patent US11447577B2, “Cyclodextrin based polymers, methods, compositions and applications thereof” (priority 2016, dated 2022)
